Reference: US6197760A (priority 2000, dated 2001)
“Also recorded” adds a separate entry of the source. Like-named read-outs stand apart in the source and are kept apart here.

Columns and labels:
in vivo [1] = settings: mouse, ip, MTD Dosage (highest non-toxic dose, LD10 or less)
[2] = test system: MCF-7 mammary tumor xenograft; design: species or system human; settings: in vivo, sc
in vivo [3] = settings: mouse, ip
M5076 sarcoma [4] = settings: mouse, in vivo; cited from earlier work
[5] = test system: MX-1 mammary tumor xenograft; assay type: in vivo, human
mammary tumor 16/C = test system: mammary tumor 16/C; design: species or system murine; settings: mouse, in vivo
L1210/CPA leukemia = assay type: in vivo, male CDF1 mice
Lewis lung carcinoma = settings: mouse, in vivo; for % ILS (increase in life span, excluding survivors) / Log kill total (Log10 cell kill) / Tumour-free survivors: ip
P388 leukemia [6] = settings: mouse, in vivo; cited from earlier work
M5076 sarcoma [7] = experiment: Response of s.c. implanted M5076 sarcoma (Table 4); assay type: in vivo, murine; settings: for days T-C: Table 4, dose not given
Description: Response of S.C. Implanted M5076 Sarcoma to Treatment with
The compounds were injected i.p. daily on days 11-15.

P388 leukemia [8] = test system: P388 leukemia; design: species or system murine; settings: mouse, in vivo; for 45-Day Surv/Total / % ILS / Approx. Net Log10 Change In Tumor Burden at End of Rx / Median Day of Death: ip, 100 mg/kg
LOX-IMVI melanoma = experiment: Evaluation against i.p. implanted LOX-IMVI melanoma (Table 6); assay type: in vivo, human; settings: for 55-Day Surv./Total / % ILS / Median Day of Death: IP, Q1DX1 (1); for increase in life span (ILS) / survivors: Table 6
Description: BM-IPM was evaluated vs. human LOX-IMVI melanoma and produced a 52% increase in life span (ILS) and 20% survivors, while IPM yielded an identical ILS with no survivors.
Evaluation of BM-IPM Against I.P. Implanted Human
Treatment: IP: Q1DX1 (1) Therapeutic Response

[9] = test system: experimental leukemias and solid tumors; design: species or system mice and rats; settings: in vivo
[10] = patients treated with Ifos; cited from earlier work
[11] = 18 mg/kg i.p. daily on days 11-15
[12] = 27 mg/kg i.p. daily on days 11-15
[13] = 40 mg/kg i.p. daily on days 11-15
[14] = L1210/CPA, i.p. day 2 only at MTD (CPA 200, Ifos 431, IPM 100 mg/kg)
[15] = L1210/0, i.p. day 2 only at MTD (CPA 200, Ifos 431, IPM 100 mg/kg)

Row | Compound | MTD (in vivo [1]) | Days delay (T-C) [2] | MTD (in vivo [3]) | tumor response / comparative activity vs. 16/C (mammary tumor 16/C) | comparative activity against Lewis lung carcinoma (Lewis lung carcinoma) | cure rate (Lewis lung carcinoma) | % ILS (increase in life span, excluding survivors) (Lewis lung carcinoma) | Log kill total (Log10 cell kill) (Lewis lung carcinoma) | Tumour-free survivors (Lewis lung carcinoma) | Days delay (T-C) (M5076 sarcoma [7]; [11]) | Days to 2 Doublings (M5076 sarcoma [7]; [11]) | Tumor-free Surv/Total (M5076 sarcoma [7]; [11]) | Days delay (T-C) (M5076 sarcoma [7]; [12]) | Days to 2 Doublings (M5076 sarcoma [7]; [12]) | Tumor-free Surv/Total (M5076 sarcoma [7]; [12]) | Days to 2 Doublings (M5076 sarcoma [7]; [13]) | 45-Day Surv/Total (P388 leukemia [8]) | % ILS (P388 leukemia [8]) | Approx. Net Log10 Change In Tumor Burden at End of Rx (P388 leukemia [8]) | Median Day of Death (P388 leukemia [8]) | other results
1 | O=P1(NCCCl)OCCCN1CCCl (centres unmarked) [Ifos, ifosfamide] | 431 mg/kg | > 39.7 | 300 mg/kg | none of which caused tumor regression | equivalent activity at equal host toxicity | 50-70% | 55 | > 4.5 | 7/10 | – | – | – | – | – | – | – | – | – | – | – | comparative activity vs. M5076 sarcoma, historically (M5076 sarcoma [4]): comparably active to CM-IPM; activity vs. MX-1 ([5]; in vivo): high activity; % ILS (dying mice only) (L1210/CPA leukemia; mouse, in vivo): +85; Day 60 survivors/total (L1210/CPA leukemia; mouse, in vivo): 0/10; Net log10 reduction in tumor burden after therapy (L1210/CPA leukemia; mouse, in vivo): 5; % ILS (dying mice only) (L1210/CPA leukemia; mouse, in vivo, ip, 289 mg/kg): +57; Day 60 survivors/total (L1210/CPA leukemia; mouse, in vivo, ip, 289 mg/kg): 0/10; Net log10 reduction in tumor burden after therapy (L1210/CPA leukemia; mouse, in vivo, ip, 289 mg/kg): 4; comparative activity vs. P388 leukemia, historically (P388 leukemia [6]): comparably active to CM-IPM; % ILS (dying mice only) (L1210/0 leukemia; mouse, in vivo): +185; Day 60 survivors/total (L1210/0 leukemia; mouse, in vivo): 0/10; Net log10 reduction in tumor burden after therapy (L1210/0 leukemia; mouse, in vivo): 8; MTD Dosage (highest non-toxic dose, LD10 or less) (L1210/0 leukemia; mouse, in vivo, ip): 289 mg/kg; % ILS (dying mice only) (L1210/0 leukemia; mouse, in vivo, ip, 289 mg/kg): +114; Day 60 survivors/total (L1210/0 leukemia; mouse, in vivo, ip, 289 mg/kg): 0/9; Net log10 reduction in tumor burden after therapy (L1210/0 leukemia; mouse, in vivo, ip, 289 mg/kg): 8
2 | CS(=O)(=O)OCCNP(=O)(O)NCCBr [BM-IPM] | – | 4.7 | – | superior to the clinical drugs CPA and Ifos and to MM-IPM | – | – | – | – | – | 0.8 days | 10.1 days | 0/6 | 7.2 days | 16.5 days | 0/6 | Toxic | 0/5 | +73 | -5.5 | 19.0 | Tumor-free Surv/Total (M5076 sarcoma [7]; [13]): 0/6; days T-C (M5076 sarcoma [7]): 7.2 days; log cell kill (P388 leukemia [8]): 5.5 log; activity vs. MX-1 ([5]; experiment analogous to MCF-7): good activity; also recorded: more active but less so than CPA and Ifos; comparative activity vs. LOX melanoma (LOX-IMVI melanoma): comparably active to IPM but less active than CPA; 55-Day Surv./Total (LOX-IMVI melanoma; 15 mg/kg/dose): 0/5; % ILS (LOX-IMVI melanoma; 15 mg/kg/dose): +26%; Median Day of Death (LOX-IMVI melanoma; 15 mg/kg/dose): 24.0 days; 55-Day Surv./Total (LOX-IMVI melanoma; 30 mg/kg/dose): 1/5; % ILS (LOX-IMVI melanoma; 30 mg/kg/dose): +52%; Median Day of Death (LOX-IMVI melanoma; 30 mg/kg/dose): 29.0 days; increase in life span (ILS) (LOX-IMVI melanoma): 52%; survivors (LOX-IMVI melanoma): 20%
3 | CS(=O)(=O)OCCNP(=O)(O)NCCF [FM-IPM] | – | – | – | – | – | – | – | – | – | – | – | – | – | – | – | – | 0/5 | +10 | -1.4 | 13.0 | –
4 | N[C@@H](Cc1ccc(N(CCCl)CCCl)cc1)C(=O)O [Melphalan] | – | 28.1 | – | – | – | – | – | – | – | – | – | – | – | – | – | – | – | – | – | – | –
5 | O=P(O)(NCCCl)NCCCl [IPM, isophosphoramide mustard] | 100 mg/kg | 33.9 | 100 mg/kg | limited regression | equivalent activity at equal host toxicity | 50-70% | 34 | > 2.1 | 6/10 | 1.0 days | 10.3 days | 0/6 | 3.3 days | 12.6 days | 0/6 | 15.4 days | 1/5 | +64 | -4.8 | 18.0 | Days delay (T-C) (M5076 sarcoma [7]; [13]): 6.1 days; Tumor-free Surv/Total (M5076 sarcoma [7]; [13]): 0/6; days T-C (M5076 sarcoma [7]): 6.1 days; log cell kill (P388 leukemia [8]): 4.8 log; comparative therapeutic efficacy against experimental leukemias and solid tumors [9]: generally comparable to that of CPA and Ifos; activity vs. MX-1 ([5]; experiment analogous to MCF-7): good activity; also recorded: more active but less so than CPA and Ifos; % ILS (dying mice only) (L1210/CPA leukemia; [14]): +114%; Net log10 reduction in tumor burden after therapy (L1210/CPA leukemia; [14]): 7 log10; Day 60 survivors/total (L1210/CPA leukemia; L1210/CPA, i.p. day 2 only at MTD (CPA 200, Ifos 431, IPM 100 mg/kg), tumor burden at start 6.0 × 10^7 cells): 1/10; 55-Day Surv./Total (LOX-IMVI melanoma; 40 mg/kg/dose): 0/5; % ILS (LOX-IMVI melanoma; 40 mg/kg/dose): +52%; Median Day of Death (LOX-IMVI melanoma; 40 mg/kg/dose): 29.0 days; increase in life span (ILS) (LOX-IMVI melanoma): identical ILS; survivors (LOX-IMVI melanoma): no survivors; % ILS (dying mice only) (L1210/0 leukemia; [15]): +128%; Net log10 reduction in tumor burden after therapy (L1210/0 leukemia; [15]): 8 log10; Day 60 survivors/total (L1210/0 leukemia; L1210/0, i.p. day 2 only at MTD (CPA 200, Ifos 431, IPM 100 mg/kg), tumor burden at start 8.5 × 10^8 cells): 0/10; metabolite of Ifos in patients [10]: major metabolite
6 | CS(=O)(=O)OCCCNP(=O)(O)NCCCl [CM3-IPM] | – | – | – | – | – | – | – | – | – | – | – | – | – | – | – | – | 0/5 | +9 | -0.7 | 12.0 | –
